Reference: patent US10723695B2, “Microbiocidal phenylamidine derivatives” (SYNGENTA PARTICIPATIONS AG, priority 2015, dated 2020)

What was measured:
Phakopsora pachyrhizi = Phakopsora pachyrhizi / soybean / leaf disk preventative (soybean rust); type: in vivo; settings: foliar, soybean leaf disks, compared to untreated control leaf disks, read-out: disease control
Protocol: Phakopsora pachyrhizi/Soybean/Leaf Disk Preventative (Soybean Rust) Four-week old soybean plants are sprayed in a spray chamber with the formulated test compound diluted in water. Leaf disks are cut from treated plants and placed on agar into 24-well plates one day after application. Leaf disks are inoculated by spraying them with a spore suspension on their lower leaf surface. After an incubation period in a climate cabinet of 24-36 hours in darkness at 20° C. and 75% rh, the leaf disks are then kept at 20° C. with 12 h light/day and 75% rh. The percentage leaf disk area covered by disease is assessed when an appropriate level of disease appears on untreated check plants (12-14 days after application).

[1] = test system: Puccinia recondita f. sp. tritici; test: Puccinia recondita f. sp. tritici / wheat / leaf disc preventative (brown rust); type: in vivo; settings: foliar, wheat leaf segments cv. Kanzler, compared to untreated control leaf disks, read-out: disease control
Procedure, shortened: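 Wheat leaf segments (cv. Kanzler) on agar were sprayed preventatively with formulated compound diluted in water and inoculated with spores 1 day later. They were incubated at 19 °C, 75% rh, 12 h light/12 h dark. Percent disease control versus untreated was scored 7-9 days after application.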

[2] = test system: Blumeria graminis f. sp. tritici (Erysiphe graminis f. sp. tritici); test: Blumeria graminis f. sp. tritici / wheat / leaf disc preventative (powdery mildew on wheat); type: in vivo; settings: foliar, wheat leaf segments cv. Kanzler, compared to untreated control leaf disks, read-out: disease control
From the text: Blumeria graminis f. sp. tritici (Erysiphe graminis f. sp. tritici)/Wheat/Leaf Disc Preventative (Powdery Mildew on Wheat) Wheat leaf segments cv. Kanzler were placed on agar in a multiwell plate (24-well format) and sprayed with the formulated test compound diluted in water. The leaf disks were inoculated by shaking powdery mildew infected plants above the test plates 1 day after application.

[3] = test system: Puccinia recondita f. sp. tritici; test: Puccinia recondita f. sp. tritici / wheat / leaf disc curative (brown rust); type: in vivo; settings: foliar, 24 h, wheat leaf segments cv. Kanzler, curative (applied 1 day after inoculation), compared to untreated control leaf disks, read-out: disease control
Protocol: Puccinia recondita f. sp. tritici/Wheat/Leaf Disc Curative (Brown Rust) Wheat leaf segments cv. Kanzler are placed on agar in multiwell plates (24-well format). The leaf segments are inoculated with a spore suspension of the fungus. Plates were stored in darkness at 19° C. and 75% rh. The formulated test compound diluted in water was applied 1 day after inoculation.

Row | Compound | melting point [°C] | pest or weed control at 200 ppm (Phakopsora pachyrhizi) [%] | pest or weed control at 200 ppm [1] [%] | pest or weed control at 200 ppm [2] [%] | pest or weed control at 200 ppm [3] [%]
1 | CCN(C)/C=N/c1cc(OC)c(C(O)(C(F)(F)F)C(F)(F)F)cc1C [Compound E1.001] | 126 to 128 | ≥ 80 | ≥ 80 | ≥ 80 | ≥ 80
2 | CCOc1cc(/N=C/N(C)CC)c(C)cc1C(O)(c1ccccc1)C(F)(F)F (centres unmarked) [Compound E1.002] | 148 to 151 | ≥ 80 | ≥ 80 | – | ≥ 80
3 | CCN(C)/C=N/c1cc(OC)c(C(O)(c2cccc(C(F)(F)F)c2)C(F)(F)F)cc1C (centres unmarked) [Compound E1.010] | 121 to 123 | ≥ 80 | ≥ 80 | ≥ 80 | ≥ 80
4 | CCN(C)/C=N/c1cc(OC)c(C(O)(c2ccc(Cl)cc2Cl)C(F)(F)F)cc1C (centres unmarked) [Compound E1.017] | 119 to 121 | ≥ 80 | ≥ 80 | ≥ 80 | ≥ 80
5 | CCN(C)/C=N/c1cc(OC)c(C(O)(c2ccc(F)cc2F)C(F)(F)F)cc1C (centres unmarked) [Compound E1.018] | 113 to 114 | ≥ 80 | ≥ 80 | ≥ 80 | ≥ 80
6 | COc1cc(/N=C/N(C)C(C)C)c(C)cc1[C@@](O)(c1ccccc1)C(F)(F)F [Compound E1.026] | 110.5 to 111.7 | ≥ 80 | ≥ 80 | ≥ 80 | ≥ 80
7 | COc1cc(/N=C/N(C)C(C)C)c(C)cc1[C@](O)(c1ccccc1)C(F)(F)F [Compound E1.027] | 110.5 to 111.7 | ≥ 80 | ≥ 80 | ≥ 80 | ≥ 80
8 | CCN(C)/C=N/c1cc(OC)c(C(O)(c2cc(F)ccc2F)C(F)(F)F)cc1C (centres unmarked) [Compound E1.031] | 137 to 140 | ≥ 80 | ≥ 80 | ≥ 80 | ≥ 80
9 | CCN(C)/C=N/c1cc(OC)c(C(O)(c2ccccc2Cl)C(F)(F)F)cc1C (centres unmarked) [Compound E1.033] | 97 to 100 | ≥ 80 | ≥ 80 | ≥ 80 | ≥ 80
10 | CCN(C)/C=N/c1cc(OC)c(C(O)(c2ccccc2F)C(F)(F)F)cc1C (centres unmarked) [Compound E1.034] | 96 to 98 | ≥ 80 | ≥ 80 | ≥ 80 | ≥ 80
11 | CCN(C)/C=N/c1cc(OC)c(C(O)(c2cccc(OC(F)F)c2)C(F)(F)F)cc1C (centres unmarked) [Compound E1.044] | 119 to 121 | ≥ 80 | – | ≥ 80 | ≥ 80
12 | CCN(C)/C=N/c1cc(OC)c(C(O)(Cc2ccc(Cl)cc2)C(F)(F)F)cc1C (centres unmarked) [Compound E1.090] | 63 to 65 | ≥ 80 | – | ≥ 80 | ≥ 80
13 | CCN(C)/C=N/c1cc(OC)c(C(O)(c2ccccc2)C(C)C)cc1C (centres unmarked) [Compound E1.124] | 82 to 84 | ≥ 80 | ≥ 80 | – | ≥ 80
14 | CCN(C)/C=N/c1cc(OC)c(C(O)(c2ccccc2)C(C)(C)C)cc1C (centres unmarked) [Compound E1.125] | 90 to 92 | ≥ 80 | ≥ 80 | – | ≥ 80

Second part, led by results:

Row | melting point [°C] | Compound | pest or weed control at 200 ppm (Phakopsora pachyrhizi) [%] | pest or weed control at 200 ppm [1] [%] | pest or weed control at 200 ppm [2] [%] | pest or weed control at 200 ppm [3] [%]
15 | 102 to 104 | CCN(C)/C=N/c1cc(OC)c(C(O)(c2ccc(F)cc2)C(F)(F)F)cc1C (centres unmarked) [Compound E1.004] | ≥ 80 | ≥ 80 | ≥ 80 | ≥ 80
16 | 160 to 162 | CCN(C)/C=N/c1cc(OC)c(C(O)(c2ccccc2)C(F)(F)F)cc1C (centres unmarked) [Compound E1.006] | ≥ 80 | ≥ 80 | ≥ 80 | ≥ 80
17 | 67 to 71 | CCN(C)/C=N/c1cc(OC)c(C(O)(c2ccc(OC)cc2)C(F)(F)F)cc1C (centres unmarked) [Compound E1.011] | ≥ 80 | ≥ 80 | ≥ 80 | ≥ 80
18 | 125 to 127 | CCN(C)/C=N/c1cc(OC)c(C(O)(c2cccc(C)c2)C(F)(F)F)cc1C (centres unmarked) [Compound E1.016] | ≥ 80 | ≥ 80 | ≥ 80 | ≥ 80
19 | 112 to 114 | CCN(C)/C=N/c1cc(OC)c(C(O)(c2ccc(C)cc2)C(F)(F)F)cc1C (centres unmarked) [Compound E1.020] | ≥ 80 | ≥ 80 | ≥ 80 | ≥ 80
20 | 38 to 40 | CCN(C)/C=N/c1cc(OC)c(C(O)(c2cccc(C#N)c2)C(F)(F)F)cc1C (centres unmarked) [Compound E1.022] | ≥ 80 | ≥ 80 | ≥ 80 | ≥ 80
21 | 98 to 100 | CCN(C)/C=N/c1cc(OC)c(C(O)(c2cccc(Br)c2)C(F)(F)F)cc1C (centres unmarked) [Compound E1.023] | ≥ 80 | ≥ 80 | ≥ 80 | ≥ 80
22 | 115 to 117 | CCN(C)/C=N/c1cc(OC)c(C(O)(c2ccccc2C)C(F)(F)F)cc1C (centres unmarked) [Compound E1.024] | ≥ 80 | ≥ 80 | ≥ 80 | ≥ 80
23 | 130 to 132 | CCN(C)/C=N/c1cc(OC)c(C(O)(c2cccc(F)c2)C(F)(F)F)cc1C (centres unmarked) [Compound E1.029] | ≥ 80 | ≥ 80 | ≥ 80 | ≥ 80
24 | 64 to 66 | CCN(C)/C=N/c1cc(OC)c(C(O)(c2ccc(SC(F)(F)F)cc2)C(F)(F)F)cc1C (centres unmarked) [Compound E1.037] | ≥ 80 | – | ≥ 80 | ≥ 80
25 | 85 to 87 | CCN(C)/C=N/c1cc(OC)c(C(O)(c2ccc(OC(F)F)cc2)C(F)(F)F)cc1C (centres unmarked) [Compound E1.045] | ≥ 80 | – | ≥ 80 | ≥ 80
26 | 100 to 102 | CCN(C)/C=N/c1cc(OC)c(C(O)(c2ccc(OC)nc2)C(F)(F)F)cc1C (centres unmarked) [Compound E1.107] | – | ≥ 80 | ≥ 80 | ≥ 80
